Earlier results as cited in patent US7820159B2, “MN/CA IX and EGFR pathway inhibition” (Instiute of Virology of the Slovak Academy of Sciences, priority 2006, dated 2010).

Assays:
MEK = details: non-ATP competitive allosteric inhibitors, unlike the majority of ATP-competitive analogs
tumor xenograft models = details: in vivo
[1] = not given; remark: listed apart in the source
[2] = patients
MN = target: T1, MN (Homo sapiens, UniProt Q16790); details: patients
T1 construct: Phase I and II clinical trials of an MN-specific drug, Rencarex®; host or cells: endogenous MN/CA IX in human trial patients

Row | Molecule | Selectivity for MEK in biochemical assays (MEK) | Anti-tumor activity in tumor xenograft models (tumor xenograft models) | Solubility compared with CI-1040 | Metabolic stability compared with CI-1040 [1] | Drug-related side effects in Phase I and II clinical trials [2] | Tolerability in Phase I and II clinical trials (MN)
1 | Cn1cnc2c(F)c(Nc3ccc(Br)cc3Cl)c(C(=O)NOCCO)cc21 [ARRY-142886] | high selectivity for MEK | potent anti-tumor activity |  |  |  | 
2 | O=C(NOC[C@H](O)CO)c1ccc(F)c(F)c1Nc1ccc(I)cc1F [PD-0325901] |  | potent anti-tumor activity | more soluble | improved |  | 
3 | Rencarex®: an MN-specific drug tested in Phase I and II clinical trials |  |  |  |  | no serious drug-related side effects | well-tolerated
